Measurements published in patent publication EP0953357A1, “NEPHROTROPIC DRUGS” (Drug Delivery System Institute, Ltd., priority 1997, dated 1998).
Where “and” joins values, the source holds several entries; their conditions need not be identical. Equal entries are not always repeated. Structures can show the parent of a compound that is named as a salt.

Experiments:
kidney membrane fraction [1] = assay: Effect of sugars on inhibition of specific binding between ^3H-Glc-S-C8 and kidney membrane fraction (Test 8); details: ^3H-Glc-S-C8 20 pmol/ml, kidney membrane fraction 1 mg protein/ml
Experimental: In order to estimate structural requirement for recognition in the kidney, an experiment was carried out on the effect of various sugars and sugar derivatives on the inhibition of specific -binding between ^3H-Glc-S-C8 (20 pmol/ml) and the kidney membrane fraction (1 mg protein/ml).

[2] = Distribution of sugar-modified AVP in organs (Test 1); assay type: in vivo, male SD rats; details: rats, i.v. 1 nmol/kg, 5 min after administration; concentration in organs and organ clearance as index (Figs. 1 and 2)
Experimental: (§1) The organ clearance was determined by the following equation.
The organ clearance under the above experimental conditions is considered as a measure of the speed at which the compound is incorporated into the organs. The kidney is an organ which functions to perform glomerular filtration for the production of urine. The renal clearance of low-molecular weight compounds, which are likely to undergo glomerular filtration, is generally larger than the clearance for other organs. Further, under the above experimental conditions, it was estimated from the results on ^14C-labeled inulin that the incorporation of about 0.6 ml/min/g was carried out by glomerular filtration. Larger values indicate the incorporation of drugs into the kidney through blood vessels in addition to the glomerular filtration.

kidney membrane fraction [3] = assay: Effect of glycolipid derivatives on inhibition of specific binding between ^3H-Glc-S-C8 and kidney membrane fraction (Test 9); details: specific binding of ^3H-Glc-S-C8 to kidney membrane fraction, same manner as Test 4
Experimental: A membrane fraction was prepared by the method of Stassen F.L. et al. (J. Pharm. Exp. Thera., 223, 50-54, 1982). An experiment on binding was carried out as follows. The membrane fraction prepared above, together with the ^3H-labeled derivative, was incubated in physiological phosphate buffer on ice, followed by ultracentrifugation. The bound product obtained as the sediment by the ultracentrifugation was counted. […]
Commercially available or synthesized glycolipid derivatives were subjected to an binding inhibition experiment in the same manner as in Test 4.

kidney membrane fraction [4] = assay: Inhibition of binding of ^3H-Glc-O-C8-AVP to kidney membrane fraction (Test 4); details: ^3H-Glc-O-C8-AVP 20 pmol/ml, kidney membrane fraction 1 mg/ml, on ice 10 min
Experimental: A membrane fraction was prepared by the method of Stassen F.L. et al. (J. Pharm. Exp. Thera., 223, 50-54, 1982). An experiment on binding was carried out as follows. The membrane fraction prepared above, together with the ^3H-labeled derivative, was incubated in physiological phosphate buffer on ice, followed by ultracentrifugation. The bound product obtained as the sediment by the ultracentrifugation was counted.
The inhibitory activity of segmental structures of Glc-O-C8-AVP and the like against binding ^3H-Glc-O-C8-AVP (20 pmol/ml) to the kidney membrane fraction (1 mg/ml) (incubation on ice for 10 min) was studied.

[5] = Renal selectivity (organ distribution) of thioglucoside-modified products (Test 6); assay type: in vivo; details: rats; for Conc. in kidney / Renal clearance: ^3H-labeled product, same manner as Test 1 (i.v. 1 nmol/kg, 5 min); for renal selectivity: comparison between AVP derivatives
Experimental: as §1

[6] = Pharmacokinetic test of monkey (Glc-S-C8-CONH-C2-NBD) (Test 10 (2)); assay type: in vivo; details: monkeys, i.v. 10 nmol/kg, 5 min; n = 2, average
Experimental: In order to investigate the difference in activity of the compounds according to the present invention between animal species, the pharmacokinetic test using monkeys was carried out as follows. […] The monkeys of group A were injected with Glc-S-C8-CONH-C2-NBD, while, for comparison, the monkeys of group B were injected with 4-(2-hydroxyethyl)amino-7-nitrobenz-2-oxa-1,3-diazole (synthesis intermediate prepared in Example 44; hereinafter referred to as "HO-C2-NBD").
Five min after the administration, the monkeys were bled to death; and, immediately after that, each organ was extracted. According to the conventional method, the organs were homogenized and deprotenized. Thereafter, the samples were subjected to separation by reversed phase liquid chromatography. Glc-S-C8-CONH-C2-NBD and HO-C2-NBD were detected and quantitatively determined by fluorescence detector.

OC[C@H]1NC[C@H](O)[C@@H](O)[C@@H]1O [1-Deoxynojirimycin]
Inhibition (%) (kidney membrane fraction [1]; sample 20 mM): 98.9%
Inhibition (%) (kidney membrane fraction [1]; sample 100 mM): 99.6%

O=CC[C@@H](O)[C@H](O)[C@H](O)CO [2-Deoxyglucose]
Inhibition (%) (kidney membrane fraction [1]; sample 20 mM): 29.2%
Inhibition (%) (kidney membrane fraction [1]; sample 100 mM): 58.3%

O=C[C@H](F)[C@@H](O)[C@H](O)[C@H](O)CO [2-Fluoro-2-deoxyglucose]
Inhibition (%) (kidney membrane fraction [1]; sample 20 mM): 37.8%
Inhibition (%) (kidney membrane fraction [1]; sample 100 mM): 67.9%

N=C(N)NCCC[C@H](NC(=O)[C@@H]1CCCN1C(=O)[C@@H]1CSSC[C@H](NC(=O)CCCCCCCCO[C@H]2C[C@@H](O)[C@H](O)[C@@H](CO)O2)C(=O)N[C@@H](Cc2ccc(O)cc2)C(=O)N[C@@H](Cc2ccccc2)C(=O)N[C@@H](CCC(N)=O)C(=O)N[C@@H](CC(N)=O)C(=O)N1)C(=O)NCC(N)=O [2dGlc-O-C8-AVP]
renal selectivity [2]: high renal selectivity

O=C[C@H](O)[C@@H](F)[C@H](O)[C@H](O)CO [3-Fluoro-3-deoxyglucose]
Inhibition (%) (kidney membrane fraction [1]; sample 20 mM): 9.7%
Inhibition (%) (kidney membrane fraction [1]; sample 100 mM): 18.7%

O=C[C@H](O)[C@@H](O)[C@H](F)[C@H](O)CO [4-Fluoro-4-deoxyglucose]
Inhibition (%) (kidney membrane fraction [1]; sample 20 mM): 70.2%
Inhibition (%) (kidney membrane fraction [1]; sample 100 mM): 83.9%

COC(=O)CCCCCCCCS[C@@H]1N[C@H](CO)[C@@H](O)[C@H](O)[C@H]1O [5N-Glc-S-C8-COOMe, 8-methoxycarbonyloctyl 5-amino-5-deoxy-1-thio-β-D-glucopyranoside hydrochloride]
IC50 (kidney membrane fraction [3]): 4.7 µM

COC(=O)CCCCCCCCS[C@@H]1S[C@H](CO)[C@@H](O)[C@H](O)[C@H]1O [5S-Glc-S-C8-COOMe, 8-methoxycarbonyloctyl 5-deoxy-1,5-dithio-β-D-glucopyranoside]
IC50 (kidney membrane fraction [3]): 14 µM

O=C[C@H](O)[C@@H](O)[C@H](O)[C@H](O)CF [6-Fluoro-6-deoxyglucose]
Inhibition (%) (kidney membrane fraction [1]; sample 20 mM): 17.8%
Inhibition (%) (kidney membrane fraction [1]; sample 100 mM): 32.5%

CCCCCCCCS[C@@H]1O[C@H](CO)[C@@H](O)[C@@H](O)[C@H]1O [All-S-C8, Octyl 1-thio-β-D-allopyranoside]
IC50 (kidney membrane fraction [3]): 1.1 µM

CCCCCCCCS[C@H]1C[C@@H](O)[C@H](O)[C@@H](CO)O1 [Example 2d-Glc-S-C8, Octyl 2-deoxy-1-thio-β-D-glucopyranoside]
IC50 (kidney membrane fraction [3]): 0.071 µM

CCCCCCCCS[C@@H]1O[C@H](CO)C[C@H](O)[C@H]1O [Example 4d-Glc-S-C8, n-octyl 4-deoxy-1-thio-β-D-glucopyranoside]
IC50 (kidney membrane fraction [3]): 55 µM

CCCCCCCCS[C@@H]1O[C@H](CO)[C@H](O)[C@H](O)[C@H]1O [Gal-S-C8, Octyl 1-thio-β-D-galactopyranoside]
IC50 (kidney membrane fraction [4]): 120 µM
IC50 (kidney membrane fraction [3]): 37 µM

O=C[C@H](O)[C@@H](O)[C@@H](O)[C@H](O)CO [Galactose]
Inhibition (%) (kidney membrane fraction [1]; sample 20 mM): 2.5%
Inhibition (%) (kidney membrane fraction [1]; sample 100 mM): 18.9%

OC[C@H]1OC(O)[C@H](O)[C@@H](O)[C@@H]1O (stereo partly drawn) [Glc, glucopyranose]
IC50 (kidney membrane fraction [4]): > 2000 µM
Inhibition (%) (kidney membrane fraction [1]; sample 20 mM): 16.7%
Inhibition (%) (kidney membrane fraction [1]; sample 100 mM): 38.4%

COC(=O)CCCCCCCN[C@@H]1O[C@H](CO)[C@@H](O)[C@H](O)[C@H]1O [Glc-NH-C7-COOMe, N-(7-methoxycarbonyl)heptyl-β-D-glucopyranosylamine]
IC50 (kidney membrane fraction [3]): 0.11 µM

CCCCCCO[C@@H]1O[C@H](CO)[C@@H](O)[C@H](O)[C@H]1O [Glc-O-C6, Hexyl β-D-glucopyranoside]
IC50 (kidney membrane fraction [4]): 5.9 µM

CCCCCCCCO[C@@H]1O[C@H](CO)[C@@H](O)[C@H](O)[C@H]1O [Glc-O-C8, Octyl β-D-glucopyranoside]
IC50 (kidney membrane fraction [4]): 2.9 µM
IC50 (kidney membrane fraction [3]): 4.6 µM

COC(=O)CCCCCCCCO[C@@H]1O[C@H](CO)[C@@H](O)[C@H](O)[C@H]1O [Glc-O-C8-COOMe, 8-methoxycarbonyloctylβ-D-glucopyranoside]
IC50 (kidney membrane fraction [3]): 33 µM

CO[C@@H]1O[C@H](CO)[C@@H](O)[C@H](O)[C@H]1O [Glc-O-CH3, Methyl β-D-glucopyranoside]
IC50 (kidney membrane fraction [4]): > 2000 µM

CCCCCCCCS[C@@H]1O[C@H](CO)[C@@H](O)[C@H](O)[C@H]1O [Glc-S-C8, Octyl 1-thio-β-D-glucopyranoside]
IC50 (kidney membrane fraction [4]): 0.065 µM
IC50 (kidney membrane fraction [3]): 0.078 µM

N=C(N)NCCC[C@H](NC(=O)[C@@H]1CCCN1C(=O)[C@@H]1CSSC[C@H](NC(=O)CCCCCCCCS[C@@H]2O[C@H](CO)[C@@H](O)[C@H](O)[C@H]2O)C(=O)N[C@@H](Cc2ccc(O)cc2)C(=O)N[C@@H](Cc2ccccc2)C(=O)N[C@@H](CCC(N)=O)C(=O)N[C@@H](CC(N)=O)C(=O)N1)C(=O)NCC(N)=O [Glc-S-C8-AVP]
Conc. in kidney [5]: 29.2±0.9 % of dose/g
Renal clearance [5]: 3.42 mL/min/g and 3.42 ± 0.05 mL/min/g
renal selectivity [5]: higher renal selectivity than Glc-O-C8-AVP

O=C(CCCCCCCCS[C@@H]1O[C@H](CO)[C@@H](O)[C@H](O)[C@H]1O)NCCNc1ccc([N+](=O)[O-])c2nonc12 [Glc-S-C8-CONH-C2-NBD]
concentration of administered compound: Adrenal [6]: 1.87 pmol/mol or g tissue
concentration of administered compound: Blood [6]: 10.72 pmol/mol or g tissue
concentration of administered compound: Heart [6]: 3.23 pmol/mol or g tissue
concentration of administered compound: Kidney [6]: 280.32 pmol/mol or g tissue
concentration of administered compound: Liver [6]: 13.85 pmol/mol or g tissue
concentration of administered compound: Lung [6]: 6.90 pmol/mol or g tissue
concentration of administered compound: Plasma [6]: 16.42 pmol/mol or g tissue
concentration of administered compound: Spleen [6]: 0.55 pmol/mol or g tissue

COC(=O)CCCCCCCCS[C@@H]1O[C@H](CO)[C@@H](O)[C@H](O)[C@H]1O [Glc-S-C8-COOMe, 8-methoxycarbonyloctyll-thio-β-D-glucopyranoside]
IC50 (kidney membrane fraction [3]): 0.59 µM

N=C(N)NCCC[C@H](NC(=O)[C@@H]1CCCN1C(=O)[C@@H]1CSSC[C@H](NC(=O)CCCCCCCCCCCS[C@@H]2O[C@H](CO)[C@@H](O)[C@H](O)[C@H]2O)C(=O)N[C@@H](Cc2ccc(O)cc2)C(=O)N[C@@H](Cc2ccccc2)C(=O)N[C@@H](CCC(N)=O)C(=O)N[C@@H](CC(N)=O)C(=O)N1)C(=O)NCC(N)=O [Glc-S-C11-AVP]
Conc. in kidney [5]: 40.2±1.5 % of dose/g
Renal clearance [5]: 4.47 ± 0.33 mL/min/g
renal selectivity [5]: higher renal selectivity than Glc-S-C8-AVP

CC(C)(C)CC(C)(C)S[C@@H]1O[C@H](CO)[C@@H](O)[C@H](O)[C@H]1O [Glc-S-C(CH3)2-CH2-C(CH3)3, t-Octyl 1-thio-β-D-glucopyranoside]
IC50 (kidney membrane fraction [3]): 1 µM

CCCCC(CCCC)S[C@@H]1O[C@H](CO)[C@@H](O)[C@H](O)[C@H]1O [Glc-S-CH(C4H9)2, 5-(1-Thio-β-D-glucopyranosyl)nonan]
IC50 (kidney membrane fraction [3]): 1.5 µM

O=[N+]([O-])c1ccc(S[C@@H]2O[C@H](CO)[C@@H](O)[C@H](O)[C@H]2O)cc1 [Glc-S-pNP, p-Nitrophenyl 1-thio-β-D-glucopyranoside]
IC50 (kidney membrane fraction [3]): 0.23 µM

O=[N+]([O-])c1ccc(NCCO)c2nonc12 [HO-C2-NBD, 4-(2-hydroxyethyl)amino-7-nitrobenz-2-oxa-1,3-diazole, reference compound]
concentration of administered compound: Adrenal [6]: 2.05 pmol/mol or g tissue
concentration of administered compound: Blood [6]: 7.53 pmol/mol or g tissue
concentration of administered compound: Heart [6]: 10.92 pmol/mol or g tissue
concentration of administered compound: Kidney [6]: 2.33 pmol/mol or g tissue
concentration of administered compound: Lung [6]: 17.33 pmol/mol or g tissue
concentration of administered compound: Plasma [6]: 7.51 pmol/mol or g tissue
concentration of administered compound: Spleen [6]: 2.35 pmol/mol or g tissue

CCCCCCCCS[C@@H]1O[C@H](CO)[C@@H](O)[C@H](O)[C@@H]1O [Man-S-C8, Octyl 1-thio-β-D-mannopyranoside]
IC50 (kidney membrane fraction [3]): 0.2 µM

CCCCCCCCS[C@@H]1OC[C@@H](O)[C@H](O)[C@H]1O [Xyl-S-C8, Octyl 1-thio-β-D-xylopyranoside]
IC50 (kidney membrane fraction [3]): 1.5 µM

arginine vasopressin [AVP, reference compound]
IC50 (kidney membrane fraction [4]): 150 µM
Conc. in kidney [5]: 5.3±0.7 % of dose/g
Renal clearance [5]: 0.49 ± 0.04 mL/min/g
